For four compounds, relative viability results are on record in the supplement of paper PMC10307832.

The first assay concerns LC-2-ad. The assay can be described thus: relative viability (nuclei count vs DMSO), 5 days (fraction); higher = more cells survive. The following applies: first compound 2 µM. In a few lines: (§1)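 Medians of duplicate plates are given as relative viability. That measure is the nuclei count in treated wells divided by the count in vehicle wells. Counts were taken on 4× images of lung cancer cell lines in 1536-well plates, 5 days after pin-tool dosing the day after seeding with one drug alone or a fixed anchor-drug dose plus five library-drug doses (not always all listed) in √10 steps.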
Compound `COCC1(CO)C(=O)C2CCN1CC2` (stereo unspecified) [PRIMA-1MET] + Cc1cc(Nc2cc(N3CCN(C)CC3)nc(Sc3ccc(NC(=O)C4CC4)cc3)n2)n[nH]1 [Tozasertib] (partner 0.1 µM) gave a relative viability of 0.399.

Compound `COCC1(CO)C(=O)C2CCN1CC2` (stereo unspecified) [PRIMA-1MET] + COc1cccc2cc(-c3nc([C@H]4CC[C@H](C(=O)O)CC4)n4ncnc(N)c34)[nH]c12 [OSI-027] (partner 0.5 µM) displayed a relative viability of 0.729.

Staying with this assay, now noted: first compound 6.325 µM.
As for `COCC1(CO)C(=O)C2CCN1CC2` (stereo unspecified) [PRIMA-1MET] + CS(=O)(=O)CCNCc1ccc(-c2ccc3ncnc(Nc4ccc(OCc5cccc(F)c5)c(Cl)c4)c3c2)o1 [Lapatinib] (partner 2 µM), the relative viability was found to be 0.936.

Compound `COCC1(CO)C(=O)C2CCN1CC2` (stereo unspecified) [PRIMA-1MET] + O=C(CCCCCCC(=O)Nc1ccccc1)NO [Vorinostat] (partner 1 µM) gave a relative viability of 0.733.

Consider `COCC1(CO)C(=O)C2CCN1CC2` (stereo unspecified) [PRIMA-1MET] + Cc1cc(Nc2cc(N3CCN(C)CC3)nc(Sc3ccc(NC(=O)C4CC4)cc3)n2)n[nH]1 [Tozasertib] (partner 0.1 µM), for which the relative viability turned out to be 0.429.

The compound `COCC1(CO)C(=O)C2CCN1CC2` (stereo unspecified) [PRIMA-1MET] + COc1cccc2cc(-c3nc([C@H]4CC[C@H](C(=O)O)CC4)n4ncnc(N)c34)[nH]c12 [OSI-027] (partner 0.5 µM) returned a relative viability of 0.898.

The assay is the same for the next values; noted with them: first compound 20 µM.
In turn, `COCC1(CO)C(=O)C2CCN1CC2` (stereo unspecified) [PRIMA-1MET] + CS(=O)(=O)CCNCc1ccc(-c2ccc3ncnc(Nc4ccc(OCc5cccc(F)c5)c(Cl)c4)c3c2)o1 [Lapatinib] (partner 2 µM) showed a relative viability of 0.963.

Take `COCC1(CO)C(=O)C2CCN1CC2` (stereo unspecified) [PRIMA-1MET] + O=C(CCCCCCC(=O)Nc1ccccc1)NO [Vorinostat] (partner 1 µM): the relative viability turned out to be 0.645.

As for `COCC1(CO)C(=O)C2CCN1CC2` (stereo unspecified) [PRIMA-1MET] + Cc1cc(Nc2cc(N3CCN(C)CC3)nc(Sc3ccc(NC(=O)C4CC4)cc3)n2)n[nH]1 [Tozasertib] (partner 0.1 µM), the relative viability was 0.394.

For the compound `COCC1(CO)C(=O)C2CCN1CC2` (stereo unspecified) [PRIMA-1MET] + COc1cccc2cc(-c3nc([C@H]4CC[C@H](C(=O)O)CC4)n4ncnc(N)c34)[nH]c12 [OSI-027] (partner 0.5 µM), the relative viability was determined as 0.819.

A further assay concerns LOU-NH91. The assay is described as above. Conditions: first compound 0.2 µM. In short, it runs like this:
as §1
On to `COCC1(CO)C(=O)C2CCN1CC2` (stereo unspecified) [PRIMA-1MET] + CS(=O)(=O)CCNCc1ccc(-c2ccc3ncnc(Nc4ccc(OCc5cccc(F)c5)c(Cl)c4)c3c2)o1 [Lapatinib] (partner 2 µM), for which the relative viability stood at 0.806.

With `COCC1(CO)C(=O)C2CCN1CC2` (stereo unspecified) [PRIMA-1MET] + O=C(CCCCCCC(=O)Nc1ccccc1)NO [Vorinostat] (partner 1 µM), the relative viability came out at 0.987.

In turn, `COCC1(CO)C(=O)C2CCN1CC2` (stereo unspecified) [PRIMA-1MET] + Cc1cc(Nc2cc(N3CCN(C)CC3)nc(Sc3ccc(NC(=O)C4CC4)cc3)n2)n[nH]1 [Tozasertib] (partner 0.1 µM) had a relative viability of 0.618.

With `COCC1(CO)C(=O)C2CCN1CC2` (stereo unspecified) [PRIMA-1MET] + COc1cccc2cc(-c3nc([C@H]4CC[C@H](C(=O)O)CC4)n4ncnc(N)c34)[nH]c12 [OSI-027] (partner 0.5 µM), the relative viability stood at 0.806.

Still in this assay, the particulars now being: first compound 0.6325 µM.
`COCC1(CO)C(=O)C2CCN1CC2` (stereo unspecified) [PRIMA-1MET] + CS(=O)(=O)CCNCc1ccc(-c2ccc3ncnc(Nc4ccc(OCc5cccc(F)c5)c(Cl)c4)c3c2)o1 [Lapatinib] (partner 2 µM) came in with a relative viability of 0.715.

`COCC1(CO)C(=O)C2CCN1CC2` (stereo unspecified) [PRIMA-1MET] + O=C(CCCCCCC(=O)Nc1ccccc1)NO [Vorinostat] (partner 1 µM) registered a relative viability of 0.878.

Consider `COCC1(CO)C(=O)C2CCN1CC2` (stereo unspecified) [PRIMA-1MET] + Cc1cc(Nc2cc(N3CCN(C)CC3)nc(Sc3ccc(NC(=O)C4CC4)cc3)n2)n[nH]1 [Tozasertib] (partner 0.1 µM), for which the relative viability is 0.673.

For the compound `COCC1(CO)C(=O)C2CCN1CC2` (stereo unspecified) [PRIMA-1MET] + COc1cccc2cc(-c3nc([C@H]4CC[C@H](C(=O)O)CC4)n4ncnc(N)c34)[nH]c12 [OSI-027] (partner 0.5 µM), the relative viability is 0.719.

Still in this assay, the particulars now being: first compound 2 µM.
Compound `COCC1(CO)C(=O)C2CCN1CC2` (stereo unspecified) [PRIMA-1MET] + CS(=O)(=O)CCNCc1ccc(-c2ccc3ncnc(Nc4ccc(OCc5cccc(F)c5)c(Cl)c4)c3c2)o1 [Lapatinib] (partner 2 µM) came in with a relative viability of 0.656.

In the case of `COCC1(CO)C(=O)C2CCN1CC2` (stereo unspecified) [PRIMA-1MET] + O=C(CCCCCCC(=O)Nc1ccccc1)NO [Vorinostat] (partner 1 µM), the relative viability worked out at 0.759.

In turn, `COCC1(CO)C(=O)C2CCN1CC2` (stereo unspecified) [PRIMA-1MET] + Cc1cc(Nc2cc(N3CCN(C)CC3)nc(Sc3ccc(NC(=O)C4CC4)cc3)n2)n[nH]1 [Tozasertib] (partner 0.1 µM) displayed a relative viability of 0.625.

Take `COCC1(CO)C(=O)C2CCN1CC2` (stereo unspecified) [PRIMA-1MET] + COc1cccc2cc(-c3nc([C@H]4CC[C@H](C(=O)O)CC4)n4ncnc(N)c34)[nH]c12 [OSI-027] (partner 0.5 µM): the relative viability was 0.589.

Still in this assay, the particulars now being: first compound 6.325 µM.
Take `COCC1(CO)C(=O)C2CCN1CC2` (stereo unspecified) [PRIMA-1MET] + CS(=O)(=O)CCNCc1ccc(-c2ccc3ncnc(Nc4ccc(OCc5cccc(F)c5)c(Cl)c4)c3c2)o1 [Lapatinib] (partner 2 µM): the relative viability was found to be 0.692.

For `COCC1(CO)C(=O)C2CCN1CC2` (stereo unspecified) [PRIMA-1MET] + O=C(CCCCCCC(=O)Nc1ccccc1)NO [Vorinostat] (partner 1 µM), the relative viability turned out to be 0.863.

Compound `COCC1(CO)C(=O)C2CCN1CC2` (stereo unspecified) [PRIMA-1MET] + Cc1cc(Nc2cc(N3CCN(C)CC3)nc(Sc3ccc(NC(=O)C4CC4)cc3)n2)n[nH]1 [Tozasertib] (partner 0.1 µM) yielded a relative viability of 0.715.

`COCC1(CO)C(=O)C2CCN1CC2` (stereo unspecified) [PRIMA-1MET] + COc1cccc2cc(-c3nc([C@H]4CC[C@H](C(=O)O)CC4)n4ncnc(N)c34)[nH]c12 [OSI-027] (partner 0.5 µM) had a relative viability of 0.662.
